Assay results taken from patent US8680052B1, “Methods of treating, reducing the incidence of, and/or preventing ischemic events” (The Medicines Company, priority 2013, dated 2014).
Read-outs that look alike come from different tables or passages of the source.

Assays:
[1] = tested on: patients with atherosclerosis undergoing PCI; assay type: in vivo; details: treatment emergent adverse event, 48 hours, safety population
Description: The primary safety end point was severe bleeding not related to coronary-artery bypass grafting, according to the Global Use of Strategies to Open Occluded Coronary Arteries (GUSTO) criteria, at 48 hours. Several other bleeding definitions were also applied.

[2] = tested on: patients with acute coronary syndromes undergoing PCI; test: Example 2: bleeding (GUSTO, TIMI, ACUITY) and adverse events up to 48 hours; assay type: in vivo, human
From the text: Multiple definitions of bleeding were used for full disclosure of bleeding risks associated with cangrelor: […] N Engl J Med 329:673-82 (1993); mild, moderate, or severe/life-threatening based on transfusion use and presence/absence of hemodynamic compromise); […] Investigators reported adverse and serious adverse events according to International Conference on Harmonization guidance (International Conference on Harmonization (ICH) Guidance Documents. U.S. Food and Drug Administration Web site. (Accessed on Oct. 8, 2009, at the FDA website beginning with “www.” and ending with “fda.gov/RegulatoryInformation/Guidances/ucm122049.htm”)).

**Q.** Which results are given for `CSCCNc1nc(SCCC(F)(F)F)nc2c1ncn2[C@@H]1O[C@H](COP(=O)(O)OP(=O)(O)C(Cl)(Cl)P(=O)(O)O)[C@@H](O)[C@H]1O` [Cangrelor, cangrelor]?
**A.** Procedural Pain (Injury, poisoning, and procedural complications) [1]: (0.1) %; Agitation (Psychiatric disorders) ([1]; n/N): 11/5529; Chest Pain (General disorders and administration site conditions) ([1]; n/N): 55/5529; Diarrhea (Gastrointestinal disorders) ([1]; n/N): 15/5529; Dyspnea (Respiratory, thoracic, and mediastinal disorders) ([1]; n/N): 64/5529; Procedural Pain (Injury, poisoning, and procedural complications) ([1]; n/N): 4/5529; OR (95% CI): Hematoma ≧5 cm at puncture site ([2]; 48-hour, safety population, cangrelor vs clopidogrel): 1.12 (0.82, 1.53); ACUITY criteria Major bleeding ([2]; human, in vivo, 48 h): 158 (3.6) no. (%); ACUITY criteria Minor bleeding ([2]; human, in vivo, 48 h): 768 (17.6) no. (%); Access site bleeding requiring radiologic or surgical intervention ([2]; human, in vivo, 48 h): 6 (0.1) no. (%); Any blood transfusion ([2]; human, in vivo, 48 h): 46 (1.1) no. (%); Any platelet transfusion ([2]; human, in vivo, 48 h): 6 (0.1) no. (%); Drop in hemoglobin and/or hematocrit ([2]; human, in vivo, 48 h): 91 (2.1) no. (%); Dyspnea ([2]; human, in vivo, 48 h): 1.0%; Ecchymosis ([2]; human, in vivo, 48 h): 284 (6.5) no. (%); Epistaxis ([2]; human, in vivo, 48 h): 9 (0.2) no. (%); GUSTO criteria Mild bleeding ([2]; human, in vivo, 48 h): 858 (19.6) no. (%); GUSTO criteria Moderate bleeding ([2]; human, in vivo, 48 h): 41 (0.9) no. (%); GUSTO criteria Severe/life-threatening bleeding ([2]; human, in vivo, 48 h): 10 (0.2) no. (%); Hematoma <5 cm at puncture site ([2]; human, in vivo, 48 h): 251 (5.7) no. (%); Hematoma ≧5 cm at puncture site ([2]; human, in vivo, 48 h): 85 (1.9) no. (%); Hemodynamic compromise ([2]; human, in vivo, 48 h): 9 (0.2) no. (%); Intracranial hemorrhage ([2]; human, in vivo, 48 h): 1 (0.0) no. (%); Intraocular ([2]; human, in vivo, 48 h): 2 (0.0) no. (%); OR (95% CI): ACUITY criteria Major bleeding ([2]; human, in vivo, 48 h): 1.26 (0.99, 1.60); OR (95% CI): ACUITY criteria Minor bleeding ([2]; human, in vivo, 48 h): 1.19 (1.06, 1.33); OR (95% CI): Access site bleeding requiring radiologic or surgical intervention ([2]; human, in vivo, 48 h): 0.60 (0.22, 1.65); OR (95% CI): Any blood transfusion ([2]; human, in vivo, 48 h): 1.09 (0.72, 1.67); OR (95% CI): Any platelet transfusion ([2]; human, in vivo, 48 h): 1.20 (0.37, 3.93); OR (95% CI): Drop in hemoglobin and/or hematocrit ([2]; human, in vivo, 48 h): 1.45 (1.05, 2.01); OR (95% CI): Ecchymosis ([2]; human, in vivo, 48 h): 1.23 (1.03, 1.47); OR (95% CI): Epistaxis ([2]; human, in vivo, 48 h): 0.41 (0.19, 0.89); OR (95% CI): GUSTO criteria Mild bleeding ([2]; human, in vivo, 48 h): 1.20 (1.07, 1.34); OR (95% CI): GUSTO criteria Moderate bleeding ([2]; human, in vivo, 48 h): 1.21 (0.76, 1.90); OR (95% CI): GUSTO criteria Severe/life-threatening bleeding ([2]; human, in vivo, 48 h): 0.91 (0.39, 2.14); OR (95% CI): Hematoma <5 cm at puncture site ([2]; human, in vivo, 48 h): 1.14 (0.94, 1.37); OR (95% CI): Hemodynamic compromise ([2]; human, in vivo, 48 h): 0.82 (0.34, 1.97); OR (95% CI): Oozing at puncture site ([2]; human, in vivo, 48 h): 1.28 (1.10, 1.49); OR (95% CI): Reoperation for bleeding ([2]; human, in vivo, 48 h): 1.00 (0.06, 15.96); OR (95% CI): Retroperitoneal ([2]; human, in vivo, 48 h): 1.50 (0.67, 3.34); OR (95% CI): TIMI criteria Major bleeding ([2]; human, in vivo, 48 h): 1.36 (0.68, 2.71); OR (95% CI): TIMI criteria Minor bleeding ([2]; human, in vivo, 48 h): 1.39 (0.84, 2.30); OR (95% CI): Thrombocytopenia ([2]; human, in vivo, 48 h): 0.86 (0.29, 2.55); Oozing at puncture site ([2]; human, in vivo, 48 h): 400 (9.1) no. (%); Reoperation for bleeding ([2]; human, in vivo, 48 h): 1 (0.0) no. (%); Reported adverse events ([2]; human, in vivo, 48 h): 26.4%; Retroperitoneal ([2]; human, in vivo, 48 h): 15 (0.3) no. (%); Serious adverse events ([2]; human, in vivo, 48 h): 2.7%; TIMI criteria Major bleeding ([2]; human, in vivo, 48 h): 19 (0.4) no. (%); TIMI criteria Minor bleeding ([2]; human, in vivo, 48 h): 36 (0.8) no. (%); Thrombocytopenia ([2]; human, in vivo, 48 h): 6 (0.1) no. (%); discontinuation of study drug due to an adverse event ([2]; human, in vivo, 48 h): 0.5%
